Assay results reported in US8609692B2, “TRPV1 antagonists” (AbbVie Inc., priority 2008, dated 2013).

What was measured:
[1] = Rat telemetry protocol (core body temperature); format: in vivo; settings: core body temperature of rats at one hour post dosing (100 μmol/kg, p.o.), relative to vehicle
Description: Male, Sprague Dawley rats, 225-250 grams were anesthetized with Sevoflurane (Abbott Laboratories). Rats were placed on a heating pad and covered with a sterile surgical drape. A ventral midline abdominal incision was made and sterile cotton tip applicators were used to gently move internal tissue and expose the abdominal aorta for implantation of the telemetry catheter (Data Sciences International; TL11M2-050-PXT). Blood flow was temporarily stopped to the lower extremities (5-7 min) with Diffenbach clamps to allow the insertion of the telemetry catheter into the abdominal aorta. Once inserted, a sterile cellulose patch was placed over the catheter/aorta and secured using a small amount of tissue adhesive (Vetbond, 3M). Once catheter placement was complete, the clamps were removed and blood flow was restored to the lower extremities. The transmitter was placed in the intraperitoneal cavity. The transmitter suture rib was sewn into the abdominal sutures to secure it in place. The skin was closed using sterile wound clips and the animal removed from Sevoflurane. Buprenex ([…] s.c.; Phoenix) was administered for post-operative analgesia. Animals were maintained on a heating pad until ambulatory, and then individually housed with food and water ad lib. Surgical staples were removed after 7-10 days post-implantation. Rats were allowed a 2-week post-surgical recovery period before treatment with test compound. Oral dosing (p.o.) was at time zero, with rats receiving a single dose of vehicle (10% EtOH, 20% Tween-80, 70% PEG-400) or a 100 μmol/kg dose of compound dissolved in vehicle. Temperature measurements were recorded every 15 minutes for the duration of the study (24 hours).
The term “core body temperature” as used herein, means the temperature measured in the intraperitoneal cavity.

[2] = molecular target: T1, human TRPV1 receptor (hTRPV1) (Homo sapiens, UniProt Q8NER1); assay: Capsaicin activation assay (Ca2+ influx, FLIPR); format: cell-based; settings: 0.05 μM capsaicin, 1321N1 cells expressing hTRPV1
T1 construct: expressed in transfected cells
Description: Dulbecco's modified Eagle medium (D-MEM) (with 4.5 mg/mL glucose) and fetal bovine serum were obtained from Hyclone Laboratories, Inc. (Logan, Utah). Dulbecco's phosphate-buffered saline (D-PBS) (with 1 mg/mL glucose and 3.6 mg/l Na pyruvate, without phenol red), L-glutamine, hygromycin B, and Lipofectamine® were obtained from Life Technologies (Grand Island, N.Y.). G418 sulfate was obtained from Calbiochem-Novabiochem Corp. (San Diego, Calif.). Capsaicin (8-methyl-N-vanillyl-6-nonenamide) was obtained from Sigma-Aldrich, Co. (St. Louis, Mo.). Fluo-4 AM (N-[4-[6-[(acetyloxy)methoxy]-2,7-difluoro-3-oxo-3H-xanthen-9-yl]-2-[2-[2-[bis[2-[(acetyloxy)methoxy]-2-oxyethyl]amino]-5-methyl-phenoxy]ethoxy]phenyl]-N-[2-[(acetyloxy)methoxy]-2-oxyethyl]-glycine, (acetyloxy)methyl ester) was purchased from Molecular Probes (Eugene, Oreg.).
The cDNAs for the human TRPV1 receptor (hTRPV1) were isolated by reverse transcriptase-polymerase chain reaction (RT-PCR) from human small intestine poly A+RNA supplied by Clontech (Palo Alto, Calif.) using primers designed surrounding the initiation and termination codons identical to the published sequences (Hayes et al. Pain 2000, 88, 205-215). The resulting cDNA PCR products were subcloned into pCIneo mammalian expression vector (Promega) and fully sequenced using fluorescent dye-terminator reagents (Prism, Perkin-Elmer Applied Biosystems Division) and a Perkin-Elmer Applied Biosystems Model 373 DNA sequencer or Model 310 genetic analyzer. Expression plasmids encoding the hTRPV1 cDNA were transfected individually into 1321N1 human astrocytoma cells using Lipofectamine®. Forty-eight hours after transfection, the neomycin-resistant cells were selected with growth medium containing 800 μg/mL Geneticin (Gibco BRL). Surviving individual colonies were isolated and screened for TRPV1 receptor activity. Cells expressing recombinant homomeric TRPV1 receptors were maintained at 37° C. in D-MEM containing 4 mM L-glutamine, 300 μg/mL G418 (Cal-biochem) and 10% fetal bovine serum under a humidified 5% CO2 atmosphere.
The functional activity of compounds at the TRPV1 receptor was determined with a Ca^2+ influx assay and measurement of intracellular Ca^2+ levels ([Ca^2+]i). All compounds were tested over an 11-point half-log concentration range. Compound solutions were prepared in D-PBS (4× final concentration), and diluted serially across 96-well v-bottom tissue culture plates using a Biomek 2000 robotic automation workstation (Beckman-Coulter, Inc., Fullerton, Calif.). A 0.2 μM solution of the TRPV1 agonist capsaicin was also prepared in D-PBS. The fluorescent Ca^2+ chelating dye Fluo-4 AM was used as an indicator of the relative levels of [Ca^2+]i in a 96-well format using a Fluorescence Imaging Plate Reader (FLIPR) (Molecular Devices, Sunnyvale, Calif.). Cells were grown to confluency in 96-well black-walled tissue culture plates. Then, prior to the assay, the cells were loaded with 100 μL per well of Fluo-4 AM (2 μM, in D-PBS) for 1-2 hours at 23° C. Washing of the cells was performed to remove extracellular Fluo-4 AM (2×1 mL D-PBS per well), and afterward, the cells were placed in the reading chamber of the FLIPR instrument. 50 μL of the compound solutions were added to the cells at the 10 second time mark of the experimental run. Then, after a 3-minute time delay, 50 μL of the capsaicin solution was added at the, 190 second time mark (0.05 μM final concentration)(final volume=200 μL) to challenge the TRPV1 receptor. Time length of the experimental run was 240 seconds. Fluorescence readings were made at 1 to 5 second intervals over the course of the experimental run. The peak increase in relative fluorescence units (minus baseline) was calculated from the 190 second time mark to the end of the experimental run, and expressed as a percentage of the 0.05 μM capsaicin (control) response. […]

T1 sequence (Q8NER1 whole entry): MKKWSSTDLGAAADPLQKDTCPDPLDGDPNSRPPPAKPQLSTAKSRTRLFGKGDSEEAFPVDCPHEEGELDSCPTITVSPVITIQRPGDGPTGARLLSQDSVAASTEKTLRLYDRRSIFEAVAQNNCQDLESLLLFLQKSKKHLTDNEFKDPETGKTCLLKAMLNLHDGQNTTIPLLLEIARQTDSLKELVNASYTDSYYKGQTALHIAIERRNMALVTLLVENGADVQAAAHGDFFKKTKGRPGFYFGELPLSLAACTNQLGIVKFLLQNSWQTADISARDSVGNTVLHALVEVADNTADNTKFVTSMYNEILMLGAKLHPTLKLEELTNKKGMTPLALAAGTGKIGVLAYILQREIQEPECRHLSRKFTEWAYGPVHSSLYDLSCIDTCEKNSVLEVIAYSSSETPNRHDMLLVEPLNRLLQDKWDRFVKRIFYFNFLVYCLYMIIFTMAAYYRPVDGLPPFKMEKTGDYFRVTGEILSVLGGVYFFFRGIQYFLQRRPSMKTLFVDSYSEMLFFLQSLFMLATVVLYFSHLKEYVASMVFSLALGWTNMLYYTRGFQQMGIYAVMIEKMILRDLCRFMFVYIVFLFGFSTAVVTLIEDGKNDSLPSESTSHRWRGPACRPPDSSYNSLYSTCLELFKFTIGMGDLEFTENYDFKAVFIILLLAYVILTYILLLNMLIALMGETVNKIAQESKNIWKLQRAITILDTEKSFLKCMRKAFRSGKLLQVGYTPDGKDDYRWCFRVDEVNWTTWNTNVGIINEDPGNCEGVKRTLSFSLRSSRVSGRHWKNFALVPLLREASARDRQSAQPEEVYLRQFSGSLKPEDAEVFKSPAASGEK

| IC50 [2] [nM] | SMILES | Δ Temp [1] [°C] |
| --- | --- | --- |
| 20 | Cn1ncc2c(NC(=O)N[C@@H]3CC(C)(C)Oc4c3cccc4C(F)(F)F)cccc21 [Example 42, N-[(4R)-2,2-dimethyl-8-(trifluoromethyl)-3,4-dihydro-2H-chromen-4-yl]-N′-(1-methyl-1H-indazol-4-yl)urea] | 0.6 |
| 28 | CC1(C)C[C@@H](NC(=O)Nc2cccc3ccncc23)c2ccc(C(F)(F)F)cc2O1 [Example 43, N-[(4R)-2,2-dimethyl-7-(trifluoromethyl)-3,4-dihydro-2H-chromen-4-yl]-N′-isoquinolin-8-ylurea] | 1.5 |
| 11 | CC1(C)C[C@@H](NC(=O)Nc2cccc3[nH]ncc23)c2cccc(C(F)(F)F)c2O1 [Example 45, N-[(4R)-2,2-dimethyl-8-(trifluoromethyl)-3,4-dihydro-2H-chromen-4-yl]-N′-1H-indazol-4-ylurea] | 0.5 |
| 17 | CCC1(CC)C[C@@H](NC(=O)Nc2cccc3c2cnn3C)c2ccc(F)cc2O1 [Example 46, N-[(4R)-2,2-diethyl-7-fluoro-3,4-dihydro-2H-chromen-4-yl]-N′-(1-methyl-1H-indazol-4-yl)urea] | 0.7 |
| 71 | CCC1(CC)C[C@@H](NC(=O)Nc2cccc3c2cnn3C)c2ccc(C(F)(F)F)cc2O1 [Example 49, N-[(4R)-2,2-diethyl-7-(trifluoromethyl)-3,4-dihydro-2H-chromen-4-yl]-N′-(1-methyl-1H-indazol-4-yl)urea] | 1.3 |
| 20 | CCC1(CC)C[C@@H](NC(=O)Nc2cccc3c2C[C@H](O)CC3)c2cccc(F)c2O1 [Example 52, N-[(4R)-2,2-diethyl-8-fluoro-3,4-dihydro-2H-chromen-4-yl]-N′-[(7R)-7-hydroxy-5,6,7,8-tetrahydronaphthalen-1-yl]urea] | 1.2 |
| 38 | CCC1(CC)C[C@@H](NC(=O)Nc2cccc3c2C[C@H](O)CC3)c2cc(F)ccc2O1 [Example 54, N-[(4R)-2,2-diethyl-6-fluoro-3,4-dihydro-2H-chromen-4-yl]-N′-[(7R)-7-hydroxy-5,6,7,8-tetrahydronaphthalen-1-yl]urea] | 1.0 |
| 16 | Cn1ncc2c(NC(=O)N[C@@H]3CCOc4c3cccc4C(F)(F)F)cccc21 [Example 59, N-(1-methyl-1H-indazol-4-yl)-N′-[(4R)-8-(trifluoromethyl)-3,4-dihydro-2H-chromen-4-yl]urea] | 0.5 |
| 22 | CCC1(CC)C[C@@H](NC(=O)Nc2cccc3c2cnn3C)c2cc(F)cc(F)c2O1 [Example 60, N-[(4R)-2,2-diethyl-6,8-difluoro-3,4-dihydro-2H-chromen-4-yl]-N′-(1-methyl-1H-indazol-4-yl)urea] | 0.7 |
| 10 | O=C(Nc1cccc2[nH]ncc12)N[C@@H]1CCOc2c1cccc2C(F)(F)F [Example 63, N-1H-indazol-4-yl-N′-[(4R)-8-(trifluoromethyl)-3,4-dihydro-2H-chromen-4-yl]urea] | 1.0 |
| 9 | CCC1(CC)C[C@@H](NC(=O)Nc2cccc3c2C[C@@H](O)CC3)c2ccc(F)cc2O1 [Example 71, N-[(4R)-2,2-diethyl-7-fluoro-3,4-dihydro-2H-chromen-4-yl]-N′-[(7S)-7-hydroxy-5,6,7,8-tetrahydronaphthalen-1-yl]urea] | 0.5 |
| 7 | CCCC1(CCC)C[C@@H](NC(=O)Nc2cccc3c2C[C@H](O)CC3)c2cc(F)ccc2O1 [Example 72, N-[(4R)-6-fluoro-2,2-dipropyl-3,4-dihydro-2H-chromen-4-yl]-N′-[(7R)-7-hydroxy-5,6,7,8-tetrahydronaphthalen-1-yl]urea] | 0.7 |
| 9 | CCC1(CC)C[C@@H](NC(=O)Nc2cccc3c2C[C@@H](O)CC3)c2cc(F)ccc2O1 [Example 73, N-[(4R)-2,2-diethyl-6-fluoro-3,4-dihydro-2H-chromen-4-yl]-N′-[(7S)-7-hydroxy-5,6,7,8-tetrahydronaphthalen-1-yl]urea] | 0.9 |
| 13 | CCC1(CC)C[C@@H](NC(=O)Nc2cccc3c2C[C@H](O)CC3)c2ccc(F)cc2O1 [Example 74, N-[(4R)-2,2-diethyl-7-fluoro-3,4-dihydro-2H-chromen-4-yl]-N′-[(7R)-7-hydroxy-5,6,7,8-tetrahydronaphthalen-1-yl]urea] | 0.9 |
| 10 | CCC1(CC)C[C@@H](NC(=O)Nc2cccc3c2C[C@H](O)CC3)c2ccc(Cl)cc2O1 [Example 75, N-[(4R)-7-chloro-2,2-diethyl-3,4-dihydro-2H-chromen-4-yl]-N′-[(7R)-7-hydroxy-5,6,7,8-tetrahydronaphthalen-1-yl]urea] | 1.0 |
| 9 | CCC1(CC)C[C@@H](NC(=O)Nc2cccc3c2C[C@@H](O)CC3)c2ccc(Cl)cc2O1 [Example 76, N-[(4R)-7-chloro-2,2-diethyl-3,4-dihydro-2H-chromen-4-yl]-N′-[(7S)-7-hydroxy-5,6,7,8-tetrahydronaphthalen-1-yl]urea] | 1.3 |
| 37 | CCC1(CC)C[C@@H](NC(=O)Nc2cccc3c2cnn3C)c2cccc(C(F)(F)F)c2O1 [Example 77, N-[(4R)-2,2-diethyl-8-(trifluoromethyl)-3,4-dihydro-2H-chromen-4-yl]-N′-(1-methyl-1H-indazol-4-yl)urea] | 1.0 |
| 13 | CCC1(CC)C[C@@H](NC(=O)Nc2cccc3c2cnn3C)c2ccc(Cl)cc2O1 [Example 78, N-[(4R)-7-chloro-2,2-diethyl-3,4-dihydro-2H-chromen-4-yl]-N′-(1-methyl-1H-indazol-4-yl)urea] | 0.6 |
| 4 | Cn1ncc2c(NC(=O)N[C@@H]3CCOc4c(OC(F)(F)F)cccc43)cccc21 [Example 79, N-(1-methyl-1H-indazol-4-yl)-N′-[(4R)-8-(trifluoromethoxy)-3,4-dihydro-2H-chromen-4-yl]urea] | 1.5 |
| 8 | Cc1cc2c(NC(=O)N[C@@H]3CC(C)(C)Oc4cc(OC(F)(F)F)ccc43)cccc2cn1 [Example 80, N-[(4R)-2,2-dimethyl-7-(trifluoromethoxy)-3,4-dihydro-2H-chromen-4-yl]-N′-(3-methylisoquinolin-5-yl)urea] | 1.7 |
